Measured values reported in ChEMBL document CHEMBL4342433, “Synthesis and anti-CVB3 activity of 4-amino acid derivative substituted pyrimidine nucleoside analogues” (Bioorg Med Chem Lett, 2020).

How the values were obtained:
[1] = (§1) Cytotoxicity in African green monkey Vero cells assessed as reduction in cell viability by MTT assay; type: cell-based; settings: chlorocebus sabaeus, Vero cells; read-out: TC50 (the source's name)
Coxsackievirus [2] = experiment: Antiviral activity against CVB3 infected in African green monkey Vero cells assessed as reduction in degree of lesion incubated for 5 days by microscopic method; type: functional, organism-based; settings: B3
Coxsackievirus [3] = experiment: Antiviral activity against CVB3 infected in African green monkey Vero cells by MTT assay; type: functional, organism-based, B3
Vero = experiment: as §1; type: cell-based; settings: chlorocebus sabaeus, vero; read-out: TC50 (the source's name)
[4] = Therapeutic Index, ratio of TC50 for African green monkey Vero cells to IC50 for CVB3 infected in African green monkey Vero cells; type: toxicity

Structure (SMILES)	CC50 [1] [µM]	IC50 (Coxsackievirus [3]; Coxsackievirus, B3, Vero) [µM]	further results
COC(=O)[C@H](CCC(=O)O)Nc1ccn([C@@H]2O[C@@](CO)(N=[N+]=[N-])[C@@H](O)[C@@H]2F)c(=O)n1	9.3	870	Activity (Coxsackievirus [2]): Dose-dependent effect
[N-]=[N+]=N[C@]1(CO)O[C@@H](n2ccc(N[C@@H](CCC(N)=O)C(N)=O)nc2=O)[C@@H](F)[C@@H]1O	160	> 1000	
[K+].[K+].[N-]=[N+]=N[C@]1(CO)O[C@@H](n2ccc(N[C@@H](CCC(=O)[O-])C(=O)[O-])nc2=O)[C@@H](F)[C@@H]1O			CC50 (Vero): 13.5 µM; TI ([4]; vero): 20.8; IC50 (Coxsackievirus [3]; vero): 282 µM
[N-]=[N+]=N[C@]1(CO)O[C@@H](n2ccc(N[C@@H](CCC(=O)O)C(=O)O)nc2=O)[C@@H](F)[C@@H]1O		488	CC50 (Vero): 30.7 µM
COC(=O)CC[C@H](Nc1ccn([C@@H]2O[C@@](CO)(N=[N+]=[N-])[C@@H](O)[C@@H]2F)c(=O)n1)C(=O)O	21.5	648	
COC(=O)CC[C@H](Nc1ccn([C@@H]2O[C@@](CO)(N=[N+]=[N-])[C@@H](O)[C@@H]2F)c(=O)n1)C(=O)OC	257	1000	
NC(=O)c1ncn([C@@H]2O[C@H](CO)[C@@H](O)[C@H]2O)n1 [RIBAVIRIN]	31.2	885	selectivity ratio ([4]; Vero cells, read-out: TI): 28.3
CNC(=O)CC[C@H](Nc1ccn([C@@H]2O[C@@](CO)(N=[N+]=[N-])[C@@H](O)[C@@H]2F)c(=O)n1)C(=O)NC	126	> 1000	
CCNC(=O)CC[C@H](Nc1ccn([C@@H]2O[C@@](CO)(N=[N+]=[N-])[C@@H](O)[C@@H]2F)c(=O)n1)C(=O)NCC	150	> 1000	
